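Dose response: 5 concentrations. Exposure: 48 h. Format: 96-well plates. Endpoint: linear interpolation; highest concentration if not reached. GI50 is the concentration that inhibits growth by half. TGI: total growth inhibition.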
Tests used:
Assay in all cases: NCI tumour cell line growth inhibition, 48 h
[1] = tested on: 786-0 renal
[2] = tested on: A498 renal
[3] = tested on: A549 NSCLC
[4] = tested on: ACHN renal
[5] = tested on: BT-549 breast
[6] = tested on: CAKI-1 renal
[7] = tested on: CCRF-CEM leukemia
[8] = tested on: COLO 205 colon
[9] = tested on: DU-145 prostate
[10] = tested on: EKVX NSCLC
[11] = tested on: HCC-2998 colon
[12] = tested on: HCT-116 colon
[13] = tested on: HCT-15 colon
[14] = tested on: HL-60(TB) leukemia
[15] = tested on: HOP-62 NSCLC
[16] = tested on: HOP-92 NSCLC
[17] = tested on: HS 578T breast
[18] = tested on: HT29 colon
[19] = tested on: IGROV1 ovarian
[20] = tested on: K-562 leukemia
[21] = tested on: KM12 colon
[22] = tested on: LOX IMVI melanoma
[23] = tested on: M14 melanoma
[24] = tested on: MALME-3M melanoma
[25] = tested on: MCF7 breast
[26] = tested on: MDA-MB-231 breast
[27] = tested on: MDA-MB-435
[28] = tested on: MDA-MB-468 breast
[29] = tested on: MOLT-4 leukemia
[30] = tested on: NCI-H226 lung
[31] = tested on: NCI-H23 lung
[32] = tested on: NCI-H460 lung
[33] = tested on: NCI-H522 lung
[34] = tested on: NCI/ADR-RES ovarian
[35] = tested on: OVCAR-3 ovarian
[36] = tested on: OVCAR-4 ovarian
[37] = tested on: OVCAR-5 ovarian
[38] = tested on: OVCAR-8 ovarian
[39] = tested on: PC-3 prostate
[40] = tested on: RPMI-8226 leukemia
[41] = tested on: RXF 393 renal
[42] = tested on: SF-268 CNS
[43] = tested on: SF-295 CNS
[44] = tested on: SF-539 CNS
[45] = tested on: SK-MEL-2 melanoma
[46] = tested on: SK-MEL-28 melanoma
[47] = tested on: SK-MEL-5 melanoma
[48] = tested on: SK-OV-3 ovarian
[49] = tested on: SN12C renal
[50] = tested on: SNB-19 CNS
[51] = tested on: SNB-75 CNS
[52] = tested on: SR leukemia
[53] = tested on: SW-620 colon
[54] = tested on: T-47D breast
[55] = tested on: TK-10 renal
[56] = tested on: U251 CNS
[57] = tested on: UACC-257 melanoma
[58] = tested on: UACC-62 melanoma
[59] = tested on: UO-31 renal

CC(C)(C)c1cc(/C=C2\S/C(=N/c3ncn[nH]3)NC2=O)cc(C(C)(C)C)c1O
GI50 [1]: 2.95 µM | TGI [1]: 13.3 µM | GI50 [2]: 1.77 µM | TGI [2]: 10.5 µM | GI50 [3]: 1.12 µM | TGI [3]: 13.8 µM | GI50 [4]: 0.691 µM | TGI [4]: 12.6 µM | GI50 [5]: 2.31 µM | TGI [5]: 11.8 µM | GI50 [6]: 1.37 µM | TGI [6]: 16.7 µM | GI50 [7]: 0.706 µM | TGI [7]: 6.5 µM | GI50 [8]: 1.99 µM | TGI [8]: 12.8 µM | GI50 [9]: 2.53 µM | TGI [9]: 21.5 µM | GI50 [10]: 2.15 µM | TGI [10]: 12.1 µM | GI50 [11]: 3.23 µM | TGI [11]: 16.9 µM | GI50 [12]: 0.978 µM | TGI [12]: 11.1 µM | GI50 [13]: 0.455 µM | TGI [13]: 12.8 µM | GI50 [14]: 2.73 µM | TGI [14]: 18 µM | GI50 [15]: 0.999 µM | TGI [15]: 18.7 µM | GI50 [16]: 1.72 µM | TGI [16]: 13.4 µM | GI50 [17]: 2.37 µM | TGI [17]: 8.47 µM | GI50 [18]: 3.03 µM | TGI [18]: 19.4 µM | GI50 [19]: 2.04 µM | TGI [19]: 14.7 µM | GI50 [20]: 1.44 µM | TGI [20]: 54.3 µM | GI50 [21]: 3.79 µM | TGI [21]: 17 µM | GI50 [22]: 0.71 µM | TGI [22]: 12.7 µM | GI50 [23]: 1.98 µM | TGI [23]: 16.3 µM | GI50 [24]: 3.74 µM | TGI [24]: 18.9 µM | GI50 [25]: 1.83 µM | TGI [25]: 13 µM | GI50 [26]: 2.91 µM | TGI [26]: 14.8 µM | GI50 [27]: 2.77 µM | TGI [27]: 14.9 µM | GI50 [28]: 2.75 µM | TGI [28]: 15.5 µM | GI50 [29]: 1.16 µM | TGI [29]: 13.7 µM | GI50 [30]: 1.8 µM | TGI [30]: 14.3 µM | GI50 [31]: 2.45 µM | TGI [31]: 17.3 µM | GI50 [32]: 0.402 µM | TGI [32]: 10.1 µM | GI50 [33]: 3.78 µM | TGI [33]: 17.9 µM | GI50 [34]: 0.472 µM | TGI [34]: 14.4 µM | GI50 [35]: 2.4 µM | TGI [35]: 15.2 µM | GI50 [36]: 2.31 µM | TGI [36]: 16.3 µM | GI50 [37]: 4.52 µM | TGI [37]: 17.7 µM | GI50 [38]: 1.76 µM | TGI [38]: 14.3 µM | GI50 [39]: 0.762 µM | TGI [39]: 22.1 µM | GI50 [40]: 2.6 µM | TGI [40]: 33.8 µM | GI50 [41]: 2.03 µM | TGI [41]: 8.35 µM | GI50 [42]: 2.61 µM | TGI [42]: 16.6 µM | GI50 [43]: 0.593 µM | TGI [43]: 12.7 µM | GI50 [44]: 2.89 µM | TGI [44]: 12.6 µM | GI50 [45]: 2.63 µM | TGI [45]: 15.9 µM | GI50 [46]: 2.93 µM | TGI [46]: 14.4 µM | GI50 [47]: 1.36 µM | TGI [47]: 9.78 µM | GI50 [48]: 4.83 µM | TGI [48]: 20.5 µM | GI50 [49]: 2.08 µM | TGI [49]: 13.3 µM | GI50 [50]: 1.5 µM | TGI [50]: 12.9 µM | GI50 [51]: 2.34 µM | TGI [51]: 13.6 µM | GI50 [52]: 0.935 µM | TGI [52]: 29.8 µM | GI50 [53]: 2.13 µM | TGI [53]: 13.7 µM | GI50 [54]: 2.29 µM | TGI [54]: 44.4 µM | GI50 [55]: 4.82 µM | TGI [55]: 20.2 µM | GI50 [56]: 0.801 µM | TGI [56]: 7.9 µM | GI50 [57]: 3.85 µM | TGI [57]: 16.7 µM | GI50 [58]: 2.28 µM | TGI [58]: 11.8 µM | GI50 [59]: 0.882 µM | TGI [59]: 12.3 µM

C=CC(=O)Nc1nc(-c2cccc(NS(=O)(=O)c3cccc4c(N(C)C)cccc34)c2)cs1
GI50 [1]: 2.6 µM | TGI [1]: 11.7 µM | GI50 [2]: 8.83 µM | TGI [2]: 18.1 µM | GI50 [3]: 9.27 µM | TGI [3]: 21.7 µM | GI50 [4]: 3.87 µM | TGI [4]: 13.3 µM | GI50 [5]: 2.72 µM | TGI [5]: 9.07 µM | GI50 [6]: 3.74 µM | TGI [6]: 13.2 µM | GI50 [7]: 1.69 µM | TGI [7]: 5.33 µM | GI50 [8]: 9.08 µM | TGI [8]: 25.3 µM | GI50 [9]: 5.4 µM | TGI [9]: 15.2 µM | GI50 [10]: 10.5 µM | TGI [10]: 20.5 µM | GI50 [11]: 9.22 µM | TGI [11]: 18.7 µM | GI50 [12]: 2.38 µM | TGI [12]: 10.5 µM | GI50 [13]: 2.77 µM | TGI [13]: 11 µM | GI50 [14]: 2.62 µM | TGI [14]: 14.7 µM | GI50 [15]: 11.4 µM | TGI [15]: 22.2 µM | GI50 [16]: 6.16 µM | TGI [16]: 16.4 µM | GI50 [17]: 4.06 µM | TGI [17]: 26.7 µM | GI50 [18]: 2.96 µM | TGI [18]: 12.2 µM | GI50 [19]: 7.67 µM | TGI [19]: 16.4 µM | GI50 [20]: 3.15 µM | TGI [20]: 74.8 µM | GI50 [21]: 6.28 µM | TGI [21]: 18 µM | GI50 [22]: 1.61 µM | TGI [22]: 4.24 µM | GI50 [23]: 4.34 µM | TGI [23]: 16 µM | GI50 [24]: 8.53 µM | TGI [24]: 17.6 µM | GI50 [25]: 2.71 µM | TGI [25]: 11.2 µM | GI50 [26]: 3.75 µM | TGI [26]: 13.2 µM | GI50 [27]: 3.02 µM | TGI [27]: 13.9 µM | GI50 [28]: 1.96 µM | TGI [28]: 6.71 µM | GI50 [29]: 2.42 µM | TGI [29]: 12.5 µM | GI50 [30]: 10.9 µM | TGI [30]: 25.8 µM | GI50 [31]: 10.4 µM | TGI [31]: 20.8 µM | GI50 [32]: 7.81 µM | TGI [32]: 18.7 µM | GI50 [33]: 2.75 µM | TGI [33]: 11.9 µM | GI50 [34]: 3.78 µM | TGI [34]: 18.3 µM | GI50 [35]: 2.1 µM | TGI [35]: 10.5 µM | GI50 [36]: 8.29 µM | TGI [36]: 17.8 µM | GI50 [37]: 9.28 µM | TGI [37]: 18.6 µM | GI50 [38]: 7.94 µM | TGI [38]: 22.5 µM | GI50 [39]: 4.7 µM | TGI [39]: 19.7 µM | GI50 [40]: 2.1 µM | TGI [40]: 11.3 µM | GI50 [41]: 2.74 µM | TGI [41]: 11.7 µM | GI50 [42]: 5.92 µM | TGI [42]: 18.2 µM | GI50 [43]: 9.01 µM | TGI [43]: 18.8 µM | GI50 [44]: 1.79 µM | TGI [44]: 6.03 µM | GI50 [45]: 9.35 µM | TGI [45]: 19.3 µM | GI50 [46]: 5.99 µM | TGI [46]: 15.3 µM | GI50 [47]: 6.19 µM | TGI [47]: 15.8 µM | GI50 [48]: 14 µM | TGI [48]: 25.9 µM | GI50 [49]: 4.56 µM | TGI [49]: 14.5 µM | GI50 [50]: 10.2 µM | TGI [50]: 19.8 µM | GI50 [51]: 1.86 µM | TGI [51]: 10.1 µM | GI50 [52]: 2 µM | TGI [52]: 20.3 µM | GI50 [53]: 2.49 µM | TGI [53]: 10.2 µM | GI50 [54]: 4.64 µM | TGI [54]: 17.7 µM | GI50 [55]: 3.07 µM | TGI [55]: 10.6 µM | GI50 [56]: 9.04 µM | TGI [56]: 18.9 µM | GI50 [57]: 9.31 µM | TGI [57]: 19.4 µM | GI50 [58]: 3.74 µM | TGI [58]: 13.1 µM | GI50 [59]: 5.43 µM | TGI [59]: 15.1 µM
